Assay results from patent publication US20200197418A1, “COMPOUNDS FOR THE TREATMENT OF DISEASES CAUSED BY OXALATE ACCUMULATION” (UNIVERSIDAD DE GRANADA, priority 2017, published 2020).
Like-named read-outs stand apart in the source and are kept apart here. Marks after values point to notes of the source that are not given here.

Key:
[1] = tested on: Agxt1-KO mouse hepatocyte cultures; assay: Oxalate reduction assay in primary hepatocyte cultures from hyperoxaluric mice, glycolate-loaded; format: cell-based; settings: for Relative oxalate at 10 μM: compound at 10 μM, Agxt1-/- mouse hepatocytes with 5 mM glycolate, mean ± standard deviation; for EC50: Agxt1-KO mouse hepatocytes, 5 mM glycolate
Protocol: Isolation and culture of hepatocytes: The isolation of hepatocytes from AGT enzyme-deficient mice was carried out as described in the literature. A total of 3.0×10^5 cells/well were then cultured in 6-well plates in William's E medium supplemented with foetal bovine serum (5%), I-glutamine (2 mM), penicillin (100 U/ml), streptomycin (100 μg/ml), insulin (2.2 mIU/ml) and hydrocortisone (0.3 μg/ml). After 5 h, the medium was switched to serum-free complete William's E medium (Biochrom, Cambridge, UK), and the cells were treated with increasing concentrations of each of the drugs in the presence of 5 mM glycolate. Samples of the culture medium were collected at 24, 48 and 72 h after treatment, to quantify oxalate.
Determination of oxalate: The determination of oxalate excreted into the medium was carried out by assaying in the presence of oxalate oxidase using a commercial kit (Trinity Biotech, Co Wicklow, Ireland), following the manufacturer's indications. GraphPad Prism 5 software was used for the graphical representation of the data as the mean±SD.
The efficacy of reducing oxalate production was measured in primary hepatocyte cultures obtained from hyperoxaluric mice (Agxt1^−/−). Cultures of less than 5 days were used to prevent possible interferences due to cell differentiation. For the short-term increase in the production of oxalate in cells and for obtaining detectable levels in standard enzymatic assays, glycolate was added to the culture medium at a concentration of 5 mM. Firstly, the viability of the hepatocytes treated with increasing concentrations of each drug up to 200 μM in the presence of glycolate was tested in comparative assays with control hepatocytes not treated with a drug and at different times.
Oxalate reduction assays were then carried out. Samples of the culture medium were taken every 24 hours after treatment with each of the compounds under evaluation. In each of these samples was measured the concentration of oxalate excreted into the medium by Agxt1^−/− hepatocytes. The determination of oxalate in the samples was carried out using a colorimetric enzymatic assay based on two consecutive reactions catalysed by the enzymes oxalate oxidase and peroxidase, respectively.

[2] = tested on: mice with PH-1 (Agxt1-KO); settings: cited from earlier work
[3] = Hepatocyte, 24 h after treatment, read-out: EC50 (24 h), reduced production of oxalate
[4] = Hepatocyte, 48 h after treatment, read-out: EC50 (48 h), reduced production of oxalate
[5] = Hepatocyte, 72 h after treatment, read-out: EC50 (72 h), reduced production of oxalate

| SMILES | Relative oxalate at 10 μM [1] | other results |
| --- | --- | --- |
| O=C(O)c1cc(-c2ccoc2)ccc1O | 0.89 ± 0.16 | – |
| Oc1ccc(-c2ccoc2)cc1O | 1.02 ± 0.3 | – |
| O=Cc1ccc(-c2ccc(C(=O)O)c(O)c2)o1 | 0.88 ± 0.18 | – |
| COc1cc(-c2ccc(C=O)o2)ccc1C(=O)O | 0.82 ± 0.04 | – |
| O=C(O)c1cc([N+](=O)[O-])c(-c2ccco2)cc1O | 0.86 ± 0.04 | – |
| O=C(O)c1ccc(-c2ccc(CO)o2)cc1O | 0.88 ± 0.01 | – |
| O=C(O)c1cc(-c2ccc(CO)o2)ccc1O | 0.88 ± 0.19 | – |
| CC(=O)c1ccc(-c2ccc(C(=O)O)c(O)c2)s1 | 0.89 ± 0.14 | – |
| O=C(O)c1cc(-c2cccs2)ccc1O | 0.82 ± 0.01 | – |
| O=C(O)c1ccc(-c2cccs2)cc1O | 0.74 ± 0.16 | – |
| O=C(O)c1ccc(-c2ccncc2)cc1O | 0.88 ± 0.03 | – |
| COc1cccc(-c2ccc(C(=O)O)c(O)c2)c1 | 0.83 ± 0.03 | – |
| O=C(O)c1ccc(-c2ccc(O)cc2)cc1O | 0.82 ± 0.01 | – |
| O=C(O)c1cc(-c2ccc(F)cc2F)ccc1O | 0.88 ± 0.08 | – |
| O=C(O)c1cc(-c2ccc(OCc3ccccc3)cc2)ccc1O | 0.8 ± 0.16 | – |
| COc1ccc(COc2ccc(-c3ccc(C(=O)O)c(O)c3)cc2)cc1 | 0.90 ± 0.16 | – |
| O=C(O)c1ccc(-c2ccccc2COc2cc(F)cc(F)c2)cc1O | 0.72 ± 0.16 | – |
| O=C(O)c1ccc(-c2ccccc2COc2cccc(C(F)(F)F)c2)cc1O | 0.62 ± 0.29 | – |
| O=C(O)c1cc(-c2ccccc2COc2cccc(C(F)(F)F)c2)ccc1O | 0.68 ± 0.21 | – |
| N.O=C(O)c1cc(-c2ccc(CNc3ccc(Br)cc3)o2)ccc1O | 0.373 ± 0.063 | – |
| C#CCCCC(=O)Nc1ccc(C(=O)c2ccc(NCc3ccc(-c4ccc(O)c(C(=O)O)c4)o3)cc2)cc1.N | 0.144 ± 0.322 | – |
| N.O=C(O)c1cc(-c2ccc(CNc3ccc([N+](=O)[O-])cc3)o2)ccc1O | −0.236 ± 0.115 | – |
| O=C(O)c1nnsc1Sc1ccc(Cl)cc1 [CCPST, reference compound] | – | EC50 ([1]; 24 h after treatment, read-out: EC50 (24 h), reduced production of oxalate): 25.3 µM; EC50 ([1]; 48 h after treatment, read-out: EC50 (48 h), reduced production of oxalate): 32.9 µM; EC50 ([1]; 72 h after treatment, read-out: EC50 (72 h), reduced production of oxalate): 33.9 µM; effectiveness in reducing oxalate levels [2]: reducing oxalate levels |
| O=C(O)c1ccc(-c2ccco2)cc1O [Compound 73, 4-(2-furyl)-2-hydroxybenzoic acid] | – | EC50 [1, 3]: 9.35 µM; EC50 [1, 4]: 92.2 µM |
| O=C(O)c1cc(-c2ccco2)ccc1O [Compound 74, 5-(2-furyl)-2-hydroxybenzoic acid] | – | EC50 [1, 3]: 3.59 µM; EC50 [1, 4]: 7.88 µM; EC50 [1, 5]: 9.2 µM |
| O=Cc1ccc(-c2ccc(O)c(C(=O)O)c2)o1 [Compound 78, 5-(5-formyl-2-furyl)-2-hydroxybenzoic acid] | – | EC50 [1, 3]: 3.45 µM; EC50 [1, 4]: 8.36 µM; EC50 [1, 5]: 11.2 µM |
| O=C(O)c1ccc(-c2ccco2)cc1O [drawing 12] | 0.87 ± 0.15 | – |
| O=C(O)c1cc(-c2ccco2)ccc1O [drawing 13] | −0.25 ± 0.2 | – |
| O=Cc1ccc(-c2ccc(O)c(C(=O)O)c2)o1 [drawing 17] | −0.06 ± 0.29^a | – |
